In patent publication US4452782A, “Pentadecapeptide” (Hoffmann-La Roche Inc., priority 1979, dated 1984):

Columns and labels:
[1] = system: Ps. aeruginosa; test: Protective activity against lethal infection in mice immunosuppressed with 5-fluorouracil; assay type: in vivo; details: 5-fluorouracil 25 mg/kg/day × 10 i.p. alone; 4 × 10^4 i.v.
Procedure: (§1) The effect was further extended against microbial infections in mice immunosuppressed by treatment of a cytostatic. Mice pretreated daily for 10 times with 5-fluorouracil (25 mg/kg/day, i.p.) were infected by either Ps. aeruginosa or C. albicans and the survivals were recorded on day 15.
(§2) C. albicans and Ps. aeruginosa were infected intravenously with 1 ×

[2] = system: C. albicans; test: as above; assay type: in vivo; details: 5-fluorouracil 25 mg/kg/day × 10 i.p. alone; 1 × 10^5 i.v.
Procedure: as §1, §2

[3] = system: Lewis lung carcinoma; test: Survival of mice with Lewis lung carcinoma in combination with cyclophosphamide and surgery (Table 8); assay type: in vivo; details: cyclophosphamide 50 mg/kg i.p. × 1 alone
Procedure: (§3) Lewis lung carcinoma (1×10^6) was implanted into footpad and at day 10 the advanced tumor was excised by amputation of the leg with the tumor developed. Then the mice were treated with cyclophosphamide (50 mg/kg, i.p.) 24 hrs later and at day 27 the dry weight of the tumor metastasized to lung was measured.
On the other hand, the effect of the peptide on survival of the mice, which were amputated the advanced tumor and treated with cyclophosphamide, was examined. The experimental conditions were identical to the above experiment except that the advanced tumor was excised at day 12 and the mice were treated with cyclophosphamide at day 13.

[4] = system: Lewis lung carcinoma; test: Suppression of growth of Lewis lung carcinoma metastasized to lung after amputation and cyclophosphamide (Table 7); assay type: in vivo, mice; details: cyclophosphamide 50 mg/kg i.p. × 1 alone after amputation; day 27
Procedure: The major problem in the treatment of cancer patient after surgical elimination of tumor is the prevention of metastasis of the tumor.
as §3

| SMILES | Suppressive activity against lethal infection (survivals at day 15) [1] | Suppressive activity against lethal infection (survivals at day 15) [2] | Survivals at day 100 [3] | Mean survival days ([3]; days after tumor implantation) | dry weight of the tumor metastasized (mg ± S.D.) [4] |
| --- | --- | --- | --- | --- | --- |
| O=c1[nH]cc(F)c(=O)[nH]1 [5-fluorouracil] | 2/7 | 5/35 | – | – | – |
| O=P1(N(CCCl)CCCl)NCCCO1 (centres unmarked) [Cyclophosphamide] | – | – | 2/12 | 32.6 ± 3.2 days | 45.9 ± 30.6 mg |
